Assay results reported in publication PMC10819243 (Pharmaceutics, 2024).
pIC50: −log10 of the molar value. Read-outs that look alike come from different tables or passages of the source.

What was measured:
HeLa = assay: MTT assay, HeLa; type: cell-based; conditions: for IC50: Homo sapiens, MTT assay, HeLa cervix carcinoma, (±s) standard deviation; for Selectivity Index HeLa: IC50 for normal cell line (HDF)/IC50 for HeLa
KB = assay: MTT assay, KB; type: cell-based; conditions: for IC50: Homo sapiens, MTT assay, KB nasopharynx carcinoma, (±s) standard deviation; for Selectivity Index KB: IC50 for normal cell line (HDF)/IC50 for KB
MCF-7 = assay: MTT assay, MCF-7; type: cell-based; conditions: for IC50: Homo sapiens, MCF7, MTT assay, MCF-7 breast carcinoma, (±s) standard deviation; for Selectivity Index MCF-7: IC50 for normal cell line (HDF)/IC50 for MCF-7
A-549 = assay: MTT assay, A-549; type: cell-based; conditions: for IC50: Homo sapiens, A549, MTT assay, A-549 lung carcinoma, (±s) standard deviation; for Selectivity Index A-549: IC50 for normal cell line (HDF)/IC50 for A-549
[1] = tested on: HDF (normal fibroblast cell line); assay: MTT assay, HDF; type: cell-based, human; conditions: MTT assay, HDF normal fibroblast cell line, (±s) standard deviation
[2] = tested on: HeLa, KB, MCF-7, A-549 and HDF cell lines; assay: MTT assay, statements over several tested cell lines; type: cell-based
[3] = summary over the tested cell lines, read-out: IC50 values for the tested cell lines (range or summary)
[4] = one approximate value or range for the four cancer cell lines, apart from HDF, read-out: IC50 for HeLa, KB, MCF-7, and A-549 cancer cell lines
[5] = ratio of IC50 values vs oleanolic acid (1)

Compound	IC50 (HeLa)	Selectivity Index HeLa (HeLa)	IC50 (KB)	Selectivity Index KB (KB)	IC50 (MCF-7)	Selectivity Index MCF-7 (MCF-7)	IC50 (A-549)	Selectivity Index A-549 (A-549)	IC50 ([1]; Homo sapiens, Fibroblast)	pIC50 [2, 3]	IC50 values for the tested cell lines (range or summary) ([2]; summary over the tested cell lines)	pIC50 [2, 4]	IC50 [1]	times less active than mother OA (1) ([2]; over the tested cell lines)	fold as active as OA (1), KB (KB; [5])	fold as active as OA (1), MCF-7 (MCF-7; [5])
COC(=O)[C@]12CCC(C)(C)CC1C1=CCC3[C@@]4(C)CC/C(=N\OC(=O)c5cccc([N+](=O)[O-])c5)C(C)(C)C4CC[C@@]3(C)[C@]1(C)CC2 (some centres unmarked) [Compound 5e]	20.1 µM	1.88	23.9 µM	1.59	21.8 µM	1.74	21.1 µM	1.80	38 µM	4.42 to 4.70	–	–	–	–	–	–
COC(=O)[C@]12CCC(C)(C)CC1C1=CC(=O)C3[C@@]4(C)CC/C(=N\OC(=O)c5ccc([N+](=O)[O-])cc5)C(C)(C)C4CC[C@@]3(C)[C@]1(C)CC2 (some centres unmarked) [Compound 6f, 3-(4′-Nitro)benzoxyimino-11-oxoolean-12-en-28-oic acid methyl ester]	28.3 µM	1.31	26.3 µM	1.41	26 µM	1.43	28.1 µM	1.32	37.2 µM	–	–	–	–	–	–	–
COC(=O)[C@]12CCC(C)(C)CC1C1=CCC3[C@@]4(C)CC/C(=N\OC(=O)c5ccc([N+](=O)[O-])cc5)C(C)(C)C4CC[C@@]3(C)[C@]1(C)CC2 (some centres unmarked) [Compound 5f, 3-(4′-Nitro)benzoxyiminoolean-12-en-28-oic acid methyl ester]	62 µM	2.13	60.7 µM	2.18	61.4 µM	2.15	69.9 µM	1.89	132 µM	3.88 to 4.22	–	–	–	–	–	–
CC1(C)CC[C@]2(C(=O)N3CCOCC3)CC[C@]3(C)C(=CCC4[C@@]5(C)CC/C(=N\OC(=O)c6ccc([N+](=O)[O-])cc6)C(C)(C)C5CC[C@]43C)C2C1 (some centres unmarked) [Compound 7f, 3-(4′-Nitro)benzoxyiminoolean-12-en-28-oic acid morpholide]	60 µM	1.42	61.5 µM	1.38	57.2 µM	1.49	62.9 µM	1.35	85.1 µM	4.18 to 4.40	–	–	–	–	–	–
CC1(C)CC[C@]2(C(=O)N3CCOCC3)CC[C@]3(C)C(=CCC4[C@@]5(C)CC/C(=N\OC(=O)CCl)C(C)(C)C5CC[C@]43C)C2C1 (some centres unmarked) [Compound 7b, 3-Chloroacetoxyiminoolean12-en-28-oic acid morpholide]	19.2 µM	2.03	19.8 µM	1.97	15.6 µM	2.50	19.3 µM	2.02	39.1 µM	4.40 to 4.82	–	–	–	–	–	–
CC1(C)CC[C@]2(C(=O)N3CCOCC3)CC[C@]3(C)C(=CCC4[C@@]5(C)CC/C(=N\OC(=O)c6ccccc6)C(C)(C)C5CC[C@]43C)C2C1 (some centres unmarked) [Compound 7d, 3-Benzoxyiminoolean-12-en-28-oic acid morpholide]	45.3 µM	1.46	45.9 µM	1.44	41.7 µM	1.58	46.8 µM	1.41	66.2 µM	4.18 to 4.40	–	–	–	–	–	–
CC1(C)CC[C@]2(C(=O)N3CCOCC3)CC[C@]3(C)C(=CCC4[C@@]5(C)CC/C(=N\OC(=O)c6cccc([N+](=O)[O-])c6)C(C)(C)C5CC[C@]43C)C2C1 (some centres unmarked) [Compound 7e, 3-(3′-Nitro)benzoxyiminoolean-12-en-28-oic acid morpholide]	12.1 µM	2.32	13.9 µM	2.02	10.2 µM	2.75	13.8 µM	2.03	28 µM	–	comparable to those of OA (1)	–	–	–	–	–
CC1(C)CC[C@]2(C(=O)O)CC[C@]3(C)C(=CC[C@@H]4[C@@]5(C)CC[C@H](O)C(C)(C)[C@@H]5CC[C@]43C)[C@@H]2C1 [Compound 1, oleanolic acid, reference compound]	–	–	–	–	–	–	–	–	17.9 µM	–	–	–	–	–	–	–
COC(=O)[C@]12CCC(C)(C)CC1C1=CC(=O)C3[C@@]4(C)CC/C(=N\OC(=O)CCl)C(C)(C)C4CC[C@@]3(C)[C@]1(C)CC2 (some centres unmarked) [Compound 6b, 3-Chloroacetoxyimino-11-oxoolean12-en-28-oic acid methyl ester]	61 µM	1.44	61 µM	1.44	64.1 µM	1.37	61.8 µM	1.42	88 µM	–	–	4.19 to 4.21	–	–	–	–
COC(=O)C12CCC(C)(C)CC1C1=CCC3C4(C)CCC(=NO)C(C)(C)C4CCC3(C)C1(C)CC2 (centres unmarked) [Compound 2, methyl oleanonate oxime]	–	1.60	–	1.70	–	1.38	13 µM	1.62	21.1 µM	–	–	–	–	–	–	–
CCC(=O)O/N=C1\CC[C@@]2(C)C(CC[C@]3(C)C2CC=C2C4CC(C)(C)CC[C@]4(C(=O)N4CCOCC4)CC[C@]23C)C1(C)C (some centres unmarked) [Compound 7c, 3-Propionoxyimino-olean-12-en-28-oic acid morpholide]	143 µM	1.27	150 µM	1.20	153 µM	1.17	148 µM	1.21	179 µM	3.74 to 3.85	–	–	–	–	–	–
COC(=O)[C@]12CCC(C)(C)CC1C1=CC(=O)C3[C@@]4(C)CC/C(=N\OC(=O)c5cccc([N+](=O)[O-])c5)C(C)(C)C4CC[C@@]3(C)[C@]1(C)CC2 (some centres unmarked) [Compound 6e, 3-(3′-Nitro)benzoxyimino-11-oxoolean-12-en-28-oic acid methyl ester]	71.2 µM	1.36	70 µM	1.39	75 µM	1.29	74 µM	1.31	~97 µM	–	–	4.13 to 4.15	97 µM	–	–	–
COC(=O)[C@]12CCC(C)(C)CC1C1=CCC3[C@@]4(C)CC/C(=N\OC(=O)CCl)C(C)(C)C4CC[C@@]3(C)[C@]1(C)CC2 (some centres unmarked) [Compound 5b, 3-Chloroacetoxyiminoolean-12-en-28-oic acid methyl ester]	19.8 µM	1.87	18.4 µM	2.01	18 µM	2.05	19.8 µM	1.87	37 µM	–	–	–	–	1.7–2.2 fold	–	–
COC(=O)[C@]12CCC(C)(C)CC1C1=CCC3[C@@]4(C)CC/C(=N\OC(C)=O)C(C)(C)C4CC[C@@]3(C)[C@]1(C)CC2 (some centres unmarked) [Compound 5a, 3-Acetoxyiminoolean-12-en-28-oic acid methyl ester]	11.1 µM	2.62	11.4 µM	2.55	10.5 µM	2.76	10.6 µM	2.74	29 µM	–	–	–	–	–	about 1.3 fold	about 1.3 fold
